In publication PMC9823097, “Dysregulation of PRMT5 in chronic lymphocytic leukemia promotes progression with high risk of Richter’s transformation” (Nature Communications, 2023):
Values joined by “and” are separate entries in the source; they are usually repeats but may differ in a detail not shown here. Identical values can stand only once. “Also recorded” adds a separate entry of the source.

Experiments:
[1] = system: Eµ-PRMT5/TCL1 Cd19+Cd5+ spleen cells engrafted into immunocompetent C57/BL6J mice; experiment: Adoptive transfer of Eµ-PRMT5/TCL1 spleen cells into C57/BL6J mice, treatment study; format: in vivo; conditions: for Endpoint / Days since enrollment: Figure 7G; for Endpoint: survival endpoint indicator; for Spleen weight: Figure 7H; for Median survival post-enrollment: oral gavage 4 contiguous days per week; for Spleen volume: individual mice, Supplemental Figure 6F
Method: For adoptive transfer, viable Cd19^+Cd5^+ cells (5 × 10^6) from the spleen of an Eµ-PRMT5/TCL1 transgenic mouse with active CLL-like leukemia (>80% circulating in peripheral blood) and palpable splenomegaly were engrafted by tail vein into immunocompetent C57/BL6J female mice. Engrafted mice were randomly assigned to treatment conditions: PRT382 10 mg/kg, EPZ015666 50 mg/kg, or vehicle (0.5% methylcellulose, 0.1% tween) at 1-week post engraftment. All treatments were administered by oral gavage 4 contiguous days per week (Mon-Thurs). Predefined euthanasia criteria for mice in all transgenic colonies and murine transplant models were followed and included lethargy, impaired motility, splenomegaly, enlarged lymph nodes and/or superficial lymphoid tumors greater than 1.6 cm in diameter (or cumulative diameter of 1.6 cm if multiple tumors), decrease in body weight (>20%), ruffled fur, hunched back, failure to nest, and loss of appetite.

CCMCL-1 = experiment: Anti-proliferative activity, MTS assay, CCMCL-1; format: cell-based; conditions: MCL, read-out: PRT382 IC50 (anti-proliferative)
Method: (§1) Cell proliferation was assessed via MTS (3-[4,5-dimethylthiazol-2-yl]-5-[3-carboxymethoxyphenyl]-2-[4-sulfophenyl]-2H-tetrazolium) assay (Sigma), using the tetrazolium dye […]. Cell apoptosis was evaluated by Annexin V-FITC or PE and propidium iodide (PI) staining using FC500 cytometer (Beckman-Coulter, Indianapolis, IN) following the manufacturer’s procedure (BD Pharmingen, Billerica, MA)[55]. For cell cycle analysis, cells were fixed with cold ethanol overnight and then stained before analysis with 30 μg/mL propidium iodide (Invitrogen) and 200 μg/mL RNase (Sigma-Aldrich) in 0.1 % v/v Triton X-100 (Sigma-Aldrich). Cell cycle data analysis was performed using ModFit LT software (Verity Software House, Topsham, ME).

KARPAS-422 = experiment: Anti-proliferative activity, MTS assay, KARPAS-422; format: cell-based; conditions: Homo sapiens, DLBCL, read-out: PRT382 IC50 (anti-proliferative)
Method: as §1

Jurkat = experiment: Anti-proliferative activity, MTS assay, Jurkat; format: cell-based; conditions: Homo sapiens, T-cell line, read-out: PRT382 IC50 (anti-proliferative)
Method: as §1

[2] = Tolerability after 5 daily oral doses in WT CD-1 mice; format: in vivo; conditions: 10, 30 and 100 mg/kg
Method: For in vitro assays, the compound was stored in a 10 mM solution in DMSO. For in vivo assays, PRT382 was dissolved in a 0.5% methylcellulose, 0.1% tween solution, and administered as oral gavage. For Pharmacokinetic studies, PRT382 was formulated in 0.5% carboxymethylcellulose sodium salt + 0.5%Tween80 as a 1 mg/mL suspension for 10 mg/kg and was administered in a 10 mL/kg dose volume by oral gavage to CD-1 mice. Blood was collected at various time points after dosing into EDTA-K2 tubes, placed on ice, and stored at −80 °C prior to analysis by LC-MS/MS. For biochemical potency and selectivity, PRT382 was solubilized in 100% DMSO and diluted serially threefold. For assessment of selectivity, enzyme activity against a panel of 37 methyltransferases was evaluated using 3H-SAM as a radioligand probe with filtration binding. PRT382 was tested in duplicate at a final concentration of 10 µM. The percent of enzyme activity relative to DMSO control condition was determined for each enzyme.

Mec-1 CLL cell line = experiment: Global symmetric dimethyl arginine (SDMA) western blot, Mec-1; format: cell-based; conditions: Mec-1, 72 h treatment
Text: Proteins extracted from whole-cell lysates were resolved by SDS-PAGE and transferred on nitrocellulose membrane as previously described. CpG685 oligonucleotide was obtained from the OSU Cytogenetics Core Lab. Antibodies used for immunoblots included anti-human PRMT5 (Abcam #ab109451), GAPDH (Millipore Sigma #MAB374), SDMA (Cell Signaling Technology #13222), c-Myc (Cell Signaling Technology #5605S), and β-Actin (Cell Signaling Technology #4967S). Cas9-mediated doxycycline-inducible knockout of PRMT5 utilized a targeted sgRNA (guide sequence: […], PAM: GGG).

primary CLL cells = experiment: Proliferation of primary IGHV-U CLL cells, MTS assay, 72 h, with and without CpG; format: cell-based, human; conditions: for Normalized A490: +CpG, individual patients' primary CLL cells, normalized to -CpG dose 0
Text: Our research complies with all relevant ethical regulations. De-identified human CLL cells were isolated as previously described after obtaining informed consent on protocols approved by The Ohio State University Cancer Institutional Review Board in accordance with the Declaration of Helsinki. All patients examined had CLL as defined by the 2008 IWCLL criteria. Sex and age of the patients who provided samples was not available. Human peripheral blood mononuclear cells (PBMC) were isolated from CLL patients using Ficoll density gradient centrifugation. (Ficoll-Paque Plus; Amersham Biosciences Inc, Piscataway, NJ). Enriched B-cell fractions were prepared using the RosetteSep™ B-cell kit (STEMCELL Technologies, Vancouver, Canada) according to the manufacturer’s instructions. Isolated cells were incubated in RPMI 1640 media (Invitrogen, Grand Island, NY) supplemented with 10% heat-inactivated fetal bovine serum (Sigma-Aldrich, St. Louis, MO), 2 mM L-glutamine (Invitrogen), and 100 U/mL penicillin/100 μg/mL streptomycin (Sigma-Aldrich) at 37 °C in an atmosphere of 5% CO2. The purity of enriched populations of CLL was routinely checked using CD19-PE (BD Pharmingen, Billerica, MA) staining by flow cytometry.
as §1

[3] = Figure 7F, per mouse, in % (unit assumed)
[4] = PRT382 10 mg/kg, EPZ015666 50 mg/kg

## O=C(NC[C@H](O)CN1CCc2ccccc2C1)c1cc(NC2COC2)ncn1 [EPZ015666]
[1]; [3]
  Week 1 CD19+/B220dim: 11.48 and 18.62 and 27.54 and 11.19 and 10.12 and 10.58 and 15.76 and 16.07 and 10.74
  Week 2 CD19+/B220dim: 15.67 and 34.32 and 54.88 and 26.83 and 24.62 and 12.62 and 27.46 and 30.9 and 21.08
  Week 3 CD19+/B220dim: 36.29 and 68.26 and 63.64 and 49.66 and 47.13 and 26.83 and 51.14 and 52.04 and 25.17
  Week 4 CD19+/B220dim: 56.34 and 75.81 and 60.54 and 71.56 and 63.33 and 48.69 and 69.46 and 71.25 and 53.76
  Week 6 CD19+/B220dim: 79.53 and 74.33 and 84.12 and 75.35 and 79.18 and 56.6 and 82.56 and 74.54 and 89.39
  Week 7 CD19+/B220dim: 80.7 and 87.13 and 89.6 and 89.4 and 86.59 and 66 and 85.98 and 83.54 and 93.2
  Week 10 CD19+/B220dim: 88.79
[1]; Figure 7F, per mouse
  Week 5 CD19+/B220dim: 50.26 and 79.76 and 83.28 and 82.04 and 59.53 and 59.67 and 70.88 and 81.41 and 79.52
  Week 8 CD19+/B220dim: 84.94 and 92.1 and 90.67 and 85.36 and 88.33 and 44.29 and 85.8 and 89.46
  Week 9 CD19+/B220dim: 85.98 and 79.2 and 88.88
[1]; per mouse
  Endpoint: 1
  Spleen weight: 1.7 g and 2.27 g and 2.35 g and 2.58 g and 2.18 g and 1.84 g and 2.11 g and 1.38 g
[1]; survival, per mouse
  Days since enrollment: 64 days and 50 days and 52 days and 51 days and 58 days and 45 days
[1]; [4]
  Median survival post-enrollment: 51 days
[1]
  Spleen volume: 1489.45 mm3 and 4749.69 mm3 and 2852.93 mm3 and 3279.99 mm3 and 2090.66 mm3 and 1726.14 mm3 and 2169.7 mm3 and 1234.53 mm3

## CON=c1nc[nH]c2c1ccn2[C@@H]1O[C@H]([C@H](O)c2ccc(Cl)c(Cl)c2)[C@@H](O)[C@H]1O.Cl [PRT382, (2 R,3 S,4 R,5 R)-2-[(R)-(3,4-dichlorophenyl)-hydroxy-methyl]-5-[(4Z)-4-methoxyimino-1H-pyrrolo[2,3-d]pyrimidin-7-yl]tetrahydrofuran-3,4-diol hydrochloride]
CCMCL-1
  IC50: 14 nM
KARPAS-422
  IC50: 23 nM
Jurkat
  IC50: > 1000 nM
[2]
  tolerability: well-tolerated
[2]; after 5 daily oral doses
  observable toxicity: without observable toxicity
Mec-1 CLL cell line
  lowest dose with decrease in global SDMA residues: 100 nM
Primary CLL cells; PRT382 0.001 μM
  Normalized A490: 3.307 and 4.074 and 2.806 and 1.916 and 4.967 and 4.310 and 1.926 and 2.473 and 1.595 and 1.924
Primary CLL cells; PRT382 0.010 μM
  Normalized A490: 3.718 and 3.941 and 2.668 and 1.775 and 4.704 and 4.675 and 1.969 and 2.468 and 1.587
Primary CLL cells; PRT382 0.100 μM
  Normalized A490: 3.022 and 3.734 and 2.874 and 1.799 and 4.461 and 3.405 and 1.501 and 2.532 and 1.373
Primary CLL cells; PRT382 1.000 μM
  Normalized A490: 2.691 and 3.811 and 2.801 and 1.761 and 4.387 and 2.568 and 1.496 and 2.524 and 1.293
Primary CLL cells; PRT382 10.000 μM
  Normalized A490: 1.699 and 2.509 and 3.622 and 2.474 and 1.561 and 4.249 and 2.269 and 1.136 and 2.309
Primary CLL cells; n = 12 IGHV-U patients, 72 h, with and without TLR9 stimulation (CpG)
  proliferative potential of primary CLL cells: Dose-dependent decrease in proliferation; also recorded: dose-dependent reduction in proliferative potential
[1]; [3]
  Week 1 CD19+/B220dim: 14.94 and 11.13 and 14.86 and 15.24 and 10.03 and 10.93 and 22.62 and 11.33 and 10.17 and 14.2
  Week 2 CD19+/B220dim: 13.43 and 12.86 and 10.14 and 23.82 and 13.56 and 16.79 and 25.72 and 21.61 and 19.95 and 20.17
  Week 3 CD19+/B220dim: 26.89 and 23.33 and 20.67 and 34.07 and 24.63 and 26.03 and 34.34 and 21.21 and 26.17 and 22.42
  Week 4 CD19+/B220dim: 41.39 and 38.3 and 24.43 and 39.63 and 41.81 and 49.51 and 51.09 and 40.09 and 18.3 and 35.71
  Week 6 CD19+/B220dim: 77.7 and 46.25 and 37.53 and 72.87 and 45.24 and 51.74 and 53.46 and 63.05 and 57.02 and 47.66
  Week 7 CD19+/B220dim: 84.05 and 64.76 and 55.81 and 74.55 and 67.6 and 65.33 and 67.88 and 74.71 and 65.7 and 77.54
  Week 10 CD19+/B220dim: 76.49 and 84.3 and 76.64 and 83.91 and 87.5 and 87.78 and 77.93 and 88.18 and 89.1 and 91.37
[1]; Figure 7F, per mouse
  Week 5 CD19+/B220dim: 59.47 and 50.76 and 31.63 and 42.2 and 57.43 and 71.78 and 71.22 and 54.4 and 38.84 and 43.16
  Week 8 CD19+/B220dim: 89.79 and 78.47 and 68.08 and 80.27 and 72.86 and 72.85 and 63.41 and 82.55 and 81.05 and 82.92
  Week 9 CD19+/B220dim: 91.31 and 75.18 and 73.48 and 85.11 and 81.63 and 77.6 and 71.82 and 88.55 and 87.37 and 84.51
[1]; Figure 7F, per mouse, week 11, in % (unit assumed)
  Week 11 CD19+/B220dim: 84.23 and 77.24 and 87.2 and 87.38 and 85.21 and 81.05 and 94.62 and 92.7 and 90.88
[1]; Figure 7F, per mouse, week 12
  Week 12 CD19+/B220dim: 87.17 and 83.54 and 90.72 and 88.55 and 85.11
[1]; Figure 7F, per mouse, week 13, in % (unit assumed)
  Week 13 CD19+/B220dim: 69.75 and 81.14 and 92.04 and 85.97 and 82.89
[1]; per mouse
  Endpoint: 1
  Spleen weight: 0.86 g and 1.01 g and 0.37 g and 0.52 g and 0.24 g and 0.7 g and 0.84 g
[1]; survival, per mouse
  Days since enrollment: 64 days and 85 days and 92 days and 71 days and 84 days
[1]; PRT382 10 mg/kg
  survival compared to EPZ015666 or vehicle: significant extension in survival
[1]; PRT382 10 mg/kg vs EPZ015666 50 mg/kg, survival
  hazard ratio, PRT382 vs EPZ015666 (Mantel–Cox): 0.65
[1]; [4]
  PRMT5 target modulation, immunoblot of splenic B cells: confirmed PRMT5 target modulation
  Median survival post-enrollment: 77 days
[1]; PRT382 10 mg/kg, survival
  hazard ratio, PRT382 vs vehicle (Mantel–Cox): 0.21
[1]; at ERC
  spleen weight and volume compared to EPZ015666 or vehicle: significantly reduced weight and volume
[1]; compared with vehicle or EPZ015666-treated mice
  leukemic expansion across non-lymphoid tissues (histopathology, liver): decrease in leukemic expansion
[1]
  Spleen volume: 645.24 mm3 and 1183.96 mm3 and 457.289 mm3 and 271.152 mm3 and 253.789 mm3 and 859.967 mm3 and 562.493 mm3
[1]; weeks 2-7 post engraftment, compared to EPZ015666 or vehicle
  rate of peripheral disease (CLL-like cells in peripheral blood): reduced the rate of peripheral disease
